Where a SMILES comes first, the peptide text is derived from it. Bridges are numbered along the chain shown (N, C = ends). Where no end group is shown, it is not given here. [ ]: non-standard residue; d: D form. R8 = C=CCCCCCC[C@@](C)(N)C(=O)O; S5 = C=CCCC[C@](C)(N)C(=O)O Bounds are passed on as bounds.

The target in data set [1] is T1, HIV-1 CA (Human immunodeficiency virus type 1 group M subtype B, UniProt P12493).
T1 construct: Wild-type HIV-1 CA was overexpressed and purified as previously described; made in house
Briefly: In vitro CA assembly, negative-stain electron microscopy. Type of data set: biochemical. To be noted: 50 μΜ CA, 0.25- to 3.0-fold molar equivalent of peptide.
Experimental: Briefly, stock proteins were adjusted to the appropriate concentration (25 μΜ for Gag protein or 50 μΜ for CA protein) with the Na2HPO4 buffer at pH 8.0. […] Negative staining was used to check the assembly. Carbon-coated copper grids (200 mesh size; EM Sciences) were treated with 20 μl of poly-L-lysine (1 mg/ml; Sigma) for 2 min. 20 μl of reaction solution was placed onto the grid for 2 min. Spotted grids were then stained with 30 μl of uranyl acetate solution for 2 min. Excess stain was removed, and grids were air-dried. Specimens were examined with a TECNAI G^2 electron microscope (FEI, OR, USA).

Data set [2] deals with T1, HIV-1 CA. Put plainly: Turbidity-based in vitro CA assembly assay. Type of data set: biochemical. To be noted: turbidity at 350 nm. As to the method:
The ability of stapled peptides to disrupt CA-CA interactions was also assessed using a turbidity-based in vitro CA assembly assay. This assay is based on the observation that the turbidity of a CA-containing solution increases in proportion to the extent of assembly.
Wild-type HIV-1 CA was overexpressed and purified as previously described. […] Turbidity assays were carried out in triplicate using a Beckman spectrophotometer at a wavelength of 350 nm to monitor HIV-1 in vitro assembly conducted at ambient temperatures. Protein samples were prepared in an assembly buffer [50 mM NaPO4 pH 8.0]. In vitro assembly reactions were prepared with 250 μl of assembly buffer containing 60 μM protein. To catalyze CA assembly 250 μl of an assembly buffer containing 5M NaCl was added. The solution was mixed by agitation and transferred a cuvette for a total delay of 20 seconds. Assembly was monitored every 10 sec for the first min and every min thereafter for a total 10 min. Assembly reactions with stapled peptides were incubated in the assembly buffer for 10 min and then centrifuged for 1 min to separate any insoluble fractions before catalyzing assembly.

Data set [3] has as its system HIV-1 pNL4-3. Briefly: Virus assembly and release assay, Gag processing. It is filed as cell-based. The conditions noted are these: 293T cells transfected with pNL4-3, peptide for 16–20 h, ratio of Pr55Gag to p24. As to the method: This inhibition was specific to HIV-1 as the release of another lentivirus, equine infectious anemia virus (EIAV), was not inhibited. In this study we investigated whether i,i + 7 stapled CAI-derived peptides have any effect on virus release. 293T cells were transfected with the full-length HIV-1 molecular clone pNL4-3, treated with stapled peptides for 16–20 h, and metabolically labeled with [^35S]Met/Cys. The cell- and virus-associated proteins were immunoprecipitated with HIV-Ig.
Figure 6 i + 7 stapled peptides have no effect on HIV-1 release, but impair Gag processing. […] Cells were metabolically labeled with [^35S]Met/Cys for 2 h. Cells were lysed and virions were collected by ultracentrifugation. Cell and virus lysates were immunoprecipitated with HIV-Ig and subjected to SDS-PAGE. Protein band intensities were quantified by phosphorimager analysis, and HIV-1 release was calculated as the amount of virion-associated p24 relative to total (cell- plus virion-associated) Gag. (b) Accumulation of unprocessed Gag in cells was measured by calculating the ratio of Pr55^Gag to p24 in cells. P values were calculated by Student’s t-test, with P < 0.05 considered significant. N = 3, ± SD.
293T cells, plated at 3 × 10^5 cells/well in 12 well plates, were transfected with the HIV-1 molecular clone pNL4-3 [69]. […] One day posttransfection, cells were metabolically labeled with [^35S]Met/Cys for 2 h. The labeled virions were pelleted in an ultracentrifuge, and the virus and cell lysates were immunoprecipitated with pooled sera from HIV-1-infected patients (HIV-Ig, obtained from the ARP) and subjected to SDS-PAGE. Protein band intensities were quantified by phosphorimager analysis, and virus release was calculated as the amount of virion-associated Gag as a fraction of total (cell- plus virion-associated) Gag synthesized during the metabolic labeling period. Accumulation of Pr55^Gag in cells was measured by calculating the ratio of Pr55^Gag to p24 (CA).

Data set [4] has as its system HIV-1 pNL4-3 (WT). It is filed as cell-based.
For data set [5], the system named is WT HIV-1 (NL4-3). Type of data set: cell-based.
Data set [6] concerns HIV-1 V120Q/A327P Env mutant. Type of data set: cell-based.
In data set [7] the test system is WT NL4-3. Briefly: Spreading virus replication in Jurkat T-cell line, RT activity, WT. It is filed as cell-based, HIV-1.
For data set [8], the system named is WT NL4-3. Briefly: Virus replication in PBMC, WT. Type of data set: cell-based, HIV-1. To be noted: PBMC from three donors, 30 μM peptide, RT activity.
Data set [9] relates to V120Q/A327P mutant. Put plainly: Virus replication in PBMC, Env mutant. Type of data set: cell-based, HIV-1. The conditions noted are these: PBMC from three donors, 30 μM peptide, RT activity.
Data set [10] concerns N-terminal and C-terminal V3 loop peptides. Briefly: ITC binding to N-terminal and C-terminal V3 loop peptides. On the set-up: species or system HIV-1. To be noted: overlapping 15-mer V3 peptides. As to the method: (§1) We also used ITC to measure the binding affinity of the stapled peptides to full-length cyclic V3 loop peptide.
(§2) Full-length V3 peptide (Cat# 1840), cyclic V3 peptide (Cat# 1837) and 15-mer overlapping V3 peptides (Cat# 1832, 6282, 6283, 6284, 6285, 6287, 6288, 6289, 6290 and 6291, for amino acid sequence see HIV-1 Subtype B (MN) Env Peptides - Complete Set Cat# 6451) were obtained through the NIH ARP.
(§3) For forward titration, 90 μM full-length V3 peptide, full-length cyclic V3 peptide or 90 μM 15-mer V3 peptides were titrated into 4.5 μM of stapled or linear peptides. Reference measurements were performed by titrating 90 μM full-length V3 peptide, full-length cyclic V3 peptide or 15-mer V3 peptide into buffer without peptide. For reverse titration, 90 μM stapled peptide was titrated into 4.5 μM full-length V3 peptide, full-length cyclic V3 peptide or […]. Reference measurements were performed by titrating 90 μM stapled peptide into buffer without peptide.

The target in data set [11] is tip of V3 loop (15-mer V3 tip peptide). Put plainly: ITC binding to 15-mer V3 tip peptide. Also on record: species or system HIV-1. The conditions noted are these: 90 μM 15-mer V3 tip peptide titrated into 4.5 μM peptide, single-site model. How it is done:
as §1, §2, §3

Data set [12] deals with MT-2 cells.
In data set [13] the test system is 293T cells.
The conditions of data set [14]: not told; cited from earlier work. The text has this: In 2005, a 12-mer peptide (CAI), identified by phage-display, was reported to disrupt both immature- and mature-like particles in vitro by targeting the C-terminal domain (CTD) of HIV-1 CA [21]. […] Subsequently, we converted CAI to a cell-penetrating peptide (NYAD-1) by using a hydrocarbon stapling technique and confirmed its binding to the CTD [24]. NYAD-1, which is an i,i + 4 staple peptide, disrupts the formation of both immature- and mature-like particles in cell-free and cell-based assembly s ... || We previously reported that an i,i + 4 stapled peptide, NYAD-1, penetrates cells and disrupts virus assembly in both in vitro and cell-based assays. […] In addition, direct binding analyses by ITC and NMR confirmed that NYAD-1 binds to the CTD of CA. These findings motivated us to expand the scope of our drug discovery effort on hydrocarbon-stapled peptides as assembly and maturation inhibitors to an i,i + 7 series of stapled peptides. This approach allowed us to explore res ...

With `CC[C@H](C)[C@H](NC(C)=O)C(=O)N[C@@H](CO)C(=O)N[C@@H](Cc1ccccc1)C(=O)N[C@]1(C)CCCCCCC=CCCC[C@@](C)(C(=O)N[C@@H](CCC(=O)O)C(=O)N[C@@H](CO)C(=O)NCC(=O)N[C@@H](CO)C(N)=O)NC(=O)[C@H](Cc2ccc(O)cc2)NC(=O)[C@H](Cc2ccc(O)cc2)NC(=O)[C@H](CC(=O)O)NC(=O)[C@H](CC(C)C)NC(=O)[C@H](CC(C)C)NC(=O)[C@H](CCC(=O)O)NC1=O` [NYAD-36] (Ac-ISF[R8]ELLDYY[S5]ESGS-NH2; staple 4-11), the “Effect on CA tube assembly, EM (in words)” value in data set [1] was “either severely damaged or disintegrated”. For the same compound, the “Effect on CA assembly, turbidity (in words)” value in data set [2] (50 mM NaPO4 pH 8.0) is reported as “reduced the extent of CA assembly in a dose-dependent manner”. Moreover, the “initial rate of CA assembly” value in data set [2] (compound:CA ratio 2:1, mean ± standard deviation from three experiments, DMSO control 216 ± 6.23) was determined as 158 ± 24.71 mOD/min. The “Accumulation of cell-associated Pr55Gag (in words)” value in [3] was “modest accumulation of cell-associated Pr55^Gag”. For the same compound, in data set [4], the “reduction in infectivity of virions produced from treated cells” value is given as “four-fold”. In data set [5], the “fold reduction of virus infectivity, WT” value is greater than 10 fold. Besides, the “fold reduction of virus infectivity, V120Q/A327P double mutant” value in data set [6] is ~ 2.5 fold. Besides, the “virus replication (in words)” value in data set [7] (Jurkat cells transfected with pNL4-3 (WT), 37.5 μM peptide) is “significantly delayed”; in data set [7] (Jurkat cells transfected with pNL4-3, 25 μM peptide), “virus replication peaked approximately six days posttransfection”; in data set [7] (Jurkat cells transfected with pNL4-3, 50 μM peptide) it was “no replication was detected”; in data set [8] it was “strongly inhibited replication of WT NL4-3 in PBMC”; in data set [9] it was “showed some antiviral activity against the V120Q/A327P mutant”. The “binding to N-terminal and C-terminal V3 loop peptides (in words)” value in data set [10] is recorded as “neither N-terminal nor C-terminal V3 loop peptides bind”. Further, the dissociation constant (Kd) (commonly the constant that tells how readily two partners part at equilibrium) in data set [11] turned out to be 15.1 ± 3.78 µM. The “CC 50 (μM ± SD) in MT-2” value in [12] was greater than 189.4 µM. In data set [13], the “Cell penetration (in words)” value was “penetrate cells less efficiently than NYAD-1”.
Turning to “ITFEDLLDYYGP-NH2 [CAI, reference compound]”, the “CC 50 (μM ± SD) in MT-2” value in [12] is greater than 100 µM. The “cell permeability (in words)” value in data set [14] is given as “lack of cell permeability”.

(Values after article PMC3842668, “Dual-acting stapled peptides target both HIV-1 entry and assembly” (Retrovirology, 2013).)
